Results: patent US8618162B2 (priority 2007, dated 2013)

Key:
[1] = biological target: T1, hAChE (Homo sapiens, UniProt P22303); assay: Ellman AChE inhibition assay, recombinant hAChE; assay type: biochemical
T1 construct: purchased Sigma C1682

[2] = biological target: T2, Ag hmg AChE (Anopheles gambiae, UniProt Q869C3); assay: Ellman AChE inhibition assay, Anopheles gambiae homogenate (Ag hmg); assay type: biochemical; settings: for IC50: Ag WT hmg IC50, WT Anopheles gambiae homogenate, pH 7.8, 10 min preincubation
T2 construct: To prepare the Ag homogenate (Ag hmg) 10 Anopheles gambiae mosquitoes were combined; from tissue; host or cells: whole Anopheles gambiae mosquitoes, crude homogenate supernatant
T2 sequence (Q869C3 39-737): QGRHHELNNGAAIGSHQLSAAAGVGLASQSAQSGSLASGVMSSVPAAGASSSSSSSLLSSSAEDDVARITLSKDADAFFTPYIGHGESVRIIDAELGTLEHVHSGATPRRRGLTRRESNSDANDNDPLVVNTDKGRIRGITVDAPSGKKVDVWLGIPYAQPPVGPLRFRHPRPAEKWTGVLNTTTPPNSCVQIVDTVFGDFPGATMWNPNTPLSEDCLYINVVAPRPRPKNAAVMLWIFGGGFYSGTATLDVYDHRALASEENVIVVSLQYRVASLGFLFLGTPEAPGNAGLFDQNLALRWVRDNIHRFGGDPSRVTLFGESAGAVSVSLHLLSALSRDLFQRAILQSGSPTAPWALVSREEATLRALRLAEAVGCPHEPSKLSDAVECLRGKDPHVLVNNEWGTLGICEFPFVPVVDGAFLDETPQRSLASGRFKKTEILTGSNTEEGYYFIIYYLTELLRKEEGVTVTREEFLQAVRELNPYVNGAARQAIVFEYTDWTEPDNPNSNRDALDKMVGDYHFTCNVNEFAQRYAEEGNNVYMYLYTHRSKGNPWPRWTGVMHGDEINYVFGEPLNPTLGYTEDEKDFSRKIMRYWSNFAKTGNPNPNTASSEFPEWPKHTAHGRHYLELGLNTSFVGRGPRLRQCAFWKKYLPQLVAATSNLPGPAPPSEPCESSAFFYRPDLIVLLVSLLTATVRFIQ

[3] = system: Anopheles gambiae; assay: Live mosquito contact toxicity, WHO filter paper assay; assay type: in vivo; settings: for lethality at 24 h: at 11 ug/cm^2, 1 hr exposure; for Live Mosquito Contact Toxicity MC for 100% lethality at 24 hr: 1 hr exposure to treated filter paper

T1 sequence (P22303 32-614): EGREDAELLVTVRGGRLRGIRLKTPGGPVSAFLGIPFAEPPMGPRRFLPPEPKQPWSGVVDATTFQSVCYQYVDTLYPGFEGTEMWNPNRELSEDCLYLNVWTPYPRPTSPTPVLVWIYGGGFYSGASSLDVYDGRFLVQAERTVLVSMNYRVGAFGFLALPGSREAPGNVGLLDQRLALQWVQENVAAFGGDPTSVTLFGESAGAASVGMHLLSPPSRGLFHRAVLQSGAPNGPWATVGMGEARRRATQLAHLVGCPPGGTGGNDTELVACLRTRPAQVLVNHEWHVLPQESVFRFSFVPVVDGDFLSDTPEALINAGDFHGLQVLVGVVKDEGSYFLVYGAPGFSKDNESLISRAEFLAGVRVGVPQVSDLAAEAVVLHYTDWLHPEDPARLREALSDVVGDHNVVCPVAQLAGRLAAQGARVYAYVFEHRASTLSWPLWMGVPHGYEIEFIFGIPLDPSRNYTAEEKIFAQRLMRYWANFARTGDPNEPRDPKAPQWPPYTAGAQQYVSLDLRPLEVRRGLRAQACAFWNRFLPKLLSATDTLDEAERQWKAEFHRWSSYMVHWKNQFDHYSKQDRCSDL

Structure (SMILES) | IC50 [1] [µM] | IC50 [2] [µM] | lethality at 24 h [3] | Live Mosquito Contact Toxicity MC for 100% lethality at 24 hr [3] [ug/cm^2] | Human/Ag IC50 ratio (selectivity for AgAChE over hAChE) ([2]; range over the two AgAChE sources (Ag hmg, Ag ace-1S)) [fold]
CCCCCCNC(=O)Oc1cccc(C(C)(C)C)c1 [Compound 1c] | 0.696 | > 100 | 13% lethal at 11 | – | –
CC(C)NC(=O)Oc1cccc(C(C)(C)C)c1 [Compound 1d, N-isopropyl-3-tert-butylphenylcarbamate] | 181 | 538 | – | – | –
C#CCNC(=O)Oc1cccc(C(C)(C)C)c1 [Compound 1e, N-propargyl 3-t-butylphenyl carbamate] | 0.205 | 0.339 | – | 56 | –
CC(C)(C)c1cccc(OC(=O)NCc2cn(Cc3ccccc3)nn2)c1 [Compound 1f, N-(1-benzyl-1H-1,2,3-triazol-4-yl)methyl 3-t-butylphenyl carbamate] | > 10 | > 10 | – | 56 | –
CN(C)C(=O)Oc1cccc(C(C)(C)C)c1 [Compound 1g] | 4.04 | 5.94 | 20% lethal at 11 | – | –
CCNC(=O)Oc1cccc(C(C)(C)C)c1 [Compound 1h] | 2.41 | 4 | – | 11 | –
CCC(CC)C[S+]([O-])c1ccccc1OC(=O)NC (stereo not drawn) [Compound 3b, 2-(2-ethylbutylsulfinyl)phenyl-N-methylcarbamate] | 55.4 | 51.8 | 0% at 11 | – | –
CNC(=O)Oc1ccccc1SC(C)C [Compound 5b, 2-(isopropylthio)phenyl-N-methylcarbamate] | 0.943 | 0.033 | – | 2.8 | –
CNC(=O)Oc1ccccc1SCC(C)C [Compound 6b, 2-(isobutylthio)phenyl-N-methylcarbamate] | 8.11 | 0.109 | – | 11 | 74
C=C(C)CSc1ccccc1OC(=O)NCC [Compound 8c, 2-(3-thio-2-methylpropenyl)phenyl-N-ethylcarbamate] | 54.2 | 13 | None at 11 | – | –
C=C(C)CSc1ccccc1OC(=O)NCCCCCC [Compound 8d, 2-(3-thio-2-methylpropenyl)phenyl-N-hexylcarbamate] | 6.86 | > 100 | None at 11 | – | –
C=C(C)CSc1ccccc1OC(=O)N(C)C [Compound 8e, 2-(3-thio-2-methylpropenyl)phenyl-N,N-dimethylcarbamate] | 10.3 | 5.82 | None at 11 | – | –
CNC(=O)Oc1ccccc1SCC1CCCCC1 [Compound 9b, 2-(cyclohexylmethylthio)phenyl-N-methylcarbamate] | 10.6 | 17.5 | – | – | –
CNC(=O)Oc1ccccc1OCC1CCCCC1 [Compound 10b, 2-(cyclohexylmethoxy)phenyl-N-methylcarbamate] | > 100 | > 100 | – | – | –
CNC(=O)Oc1ccccc1OCC1CCCC1 [Compound 12b, 2-(cyclopentylmethoxy)phenyl-N-methylcarbamate] | > 100 | 24.6 | – | – | –
CNC(=O)Oc1cccc(-c2cn(Cc3ccccc3)nn2)c1 [Compound 13a, N-methyl 3-(1-benzyl-1H-1,2,3-triazol-4-yl)phenyl carbamate] | > 100 | 336 | None at 11 | – | –
C=C(C)COc1ccccc1OC(=O)NC [Compound 20b, 2-(2-methylallyloxy)phenyl-N-methylcarbamate] | 68.7 | 1.51 | 93% lethality at 11 | – | –
